Measurements taken from patent US20080207447A1, “Cyanopyridine Pesticides” (BASF Aktiengesellschaft, priority 2005, published 2008).

Tests used:
Type in all cases: in vivo
[1] = tested on: Green Peach Aphid (Myzus persicae), mixed life stages; assay: Green peach aphid (Myzus persicae), mixed life stages, bell pepper leaf dip test; settings: foliar, 120 h, infested bell pepper leaves dipped, determined after 5 days, read-out: mortality of green peach aphid in comparison with untreated controls
Protocol: (§1) The active compounds were formulated in a mixture of 50 vol.-% acetone:50 vol.-% water. A nonionic surfactant (Kinetic®) was included in the solution at a volume of 0.01% v/v.
(§2) In the following tests, the formulated solutions of the active compounds were diluted to an active ingredient concentration of 300 ppm and the diluted solutions were applied in the below mentioned tests.
(§3) II.1 Cotton Aphid (Aphis gossypil), Mixed Life Stages • Cotton plants at the cotyledon stage were infested prior to treatment by placing a heavily infested leaf from the main aphid colony on top of each cotyledon. The aphids were allowed to transfer overnight and the host leaf was removed. The infested cotyledons were then dipped and agitated in the test solution for 3 seconds and allowed to dry in a fume hood. […] Aphid mortality on the treated plants, relative to mortality on untreated check plants, was determined after 5 days. • In this test compounds each of examples 12 to 36, 38, 39, 40 and 41 at 300 ppm provided at least 90% mortality of cotton aphid (Aphis gossypii, mixed life stages) in comparison with untreated controls. […] Aphid mortality on the treated plants, relative to mortality on untreated check plants, was determined after 5 days. • In this test compounds each of examples 12 to 36, 38, 39, 40 and 41 at 300 ppm provided at least 90% mortality of green peach aphidin comparison with untreated controls. […]

[2] = tested on: Cotton Aphid (Aphis gossypii), mixed life stages; assay: Cotton aphid (Aphis gossypii), mixed life stages, cotyledon dip test; settings: 120 h, infested cotton cotyledons dipped, determined after 5 days, read-out: mortality of cotton aphid in comparison with untreated controls
Protocol: as §1, §2, §3

Bean Aphid (Aphis fabae) = assay: Bean aphid (Aphis fabae), nasturtium plant dip test; settings: 72 h, infested nasturtium plants dipped, determined after 3 days, read-out: mortality of bean aphid in comparison with untreated controls

Measured: mortality at 300 ppm

Cc1cncc(S(=O)(=O)N(C)C)c1C#N [Example 12, 4-Cyano-5-methyl-pyridine-3-sulfonic acid dimethylamide]
≥ 90%: all assays above
